We go through 13 compounds from ChEMBL document CHEMBL1773071, “Development of tricyclic hydroxy-1H-pyrrolopyridine-trione containing HIV-1 integrase inhibitors” (Bioorg Med Chem Lett, 2011).

One may read the IC50 as the concentration that inhibits the measured activity by half. What is called CC50 is the concentration at which the toxic effect on the cells reaches its halfway point. By EC50 is commonly meant the concentration giving half of the maximal effect. A low value points to greater potency.

Data set [1] addresses T1, Human immunodeficiency virus type 1 integrase (Human immunodeficiency virus 1, UniProt Q7ZJM1). Nature of the data set: Inhibition of HIV1 recombinant integrase strand transfer activity expressed in Escherichia coli after 30 mins using [32P]-labeled oligonucleotide as a substrate by densitometric analysis.
Data set [2] deals with T1, Human immunodeficiency virus type 1 integrase. Nature of the data set: Inhibition of HIV1 recombinant integrase strand transfer activity expressed in Escherichia coli after 60 mins using [32P]-labeled oligonucleotide as a substrate by densitometric analysis in presence of cofactor magnesium.
For data set [3], the system named is Human immunodeficiency virus 1. Kind of data set: Resistant fold, ratio of EC50 for HIV1 harboring integrase G140S/Q148H mutant to EC50 for HIV1 harboring wild-type integrase. The format is functional.
The target in data set [4] is T1, Human immunodeficiency virus type 1 integrase. Kind of data set: Inhibition of HIV1 recombinant integrase 3'-processing activity expressed in Escherichia coli after 60 mins using [32P]-labeled oligonucleotide as a substrate by densitometric analysis in presence of cofactor manganese.
Data set [5] has as its system Human immunodeficiency virus 1. Kind of data set: Resistant fold, ratio of EC50 for HIV1 harboring integrase N155H mutant to EC50 for HIV1 harboring wild-type integrase. Type of data set: functional.
Data set [6] deals with Human immunodeficiency virus 1. Nature of the data set: Resistant fold, ratio of EC50 for HIV1 harboring integrase Y143R mutant to EC50 for HIV1 harboring wild-type integrase. Type of data set: functional.
The next data set concerns HOS. Kind of data set: Cytotoxicity against human HOS cells assessed as ATP level after 48 hrs by luciferase reporter assay. The format is cell-based. Background: A reporter such as luciferase makes a cellular process visible.
The target of data set [7] is T1, Human immunodeficiency virus type 1 integrase. Nature of the data set: Inhibition of HIV1 recombinant integrase strand transfer activity expressed in Escherichia coli after 60 mins using [32P]-labeled oligonucleotide as a substrate by densitometric analysis in presence of cofactor manganese.
Data set [8] has as its system Human immunodeficiency virus 1. Nature of the data set: Antiviral activity against HIV1 harboring wild-type integrase infected in human HOS cells. Conditions: Human immunodeficiency virus 1, HOS. Type of data set: functional, organism-based.
Data set [9] deals with T1, Human immunodeficiency virus type 1 integrase. Nature of the data set: Inhibition of HIV1 recombinant integrase 3'-processing activity expressed in Escherichia coli after 30 mins using [32P]-labeled oligonucleotide as a substrate by densitometric analysis.
For data set [10] the target is unchanged. Kind of data set: Inhibition of HIV1 recombinant integrase 3'-processing activity expressed in Escherichia coli after 60 mins using [32P]-labeled oligonucleotide as a substrate by densitometric analysis in presence of cofactor magnesium.

Some results are limits rather than exact numbers.

T1 sequence (Q7ZJM1 whole entry): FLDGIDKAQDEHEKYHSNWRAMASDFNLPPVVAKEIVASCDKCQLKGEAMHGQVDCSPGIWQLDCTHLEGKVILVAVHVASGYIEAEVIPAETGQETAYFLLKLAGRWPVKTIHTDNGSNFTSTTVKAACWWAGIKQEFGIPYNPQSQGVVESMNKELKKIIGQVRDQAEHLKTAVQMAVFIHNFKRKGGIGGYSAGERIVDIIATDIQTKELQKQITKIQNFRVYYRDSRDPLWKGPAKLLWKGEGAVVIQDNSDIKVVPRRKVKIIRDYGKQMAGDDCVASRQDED

For `O=C1c2ccc(O)c(O)c2C(=O)N1Cc1ccc(F)cc1`, in data set [1], the IC50 is 5.3 µM.
Regarding `O=C1c2c(c3n(c(=O)c2O)CCCC3)C(=O)N1Cc1ccc(F)c(Cl)c1`, the half-inhibitory concentration (IC50) in data set [2] was 9.1 µM; in [4], 28 µM; in [7], 1200 nM; in data set [1], 9.1 µM; in data set [9] it was more than 111 µM; in [10], more than 111 µM. Further, the “Ratio EC50” value in data set [3] is listed as 2; in data set [5] it was 3; in data set [6], 4. In addition, in the data set on HOS, the 50% cytotoxic concentration (CC50) came to 291 µM. Moreover, the midpoint of the response in data set [8], the EC50, lay at 61 µM.
With `O=C1c2c(c3n(c(=O)c2O)CCCCC3)C(=O)N1Cc1ccccc1`, the IC50 in data set [1] and in data set [9] was more than 111 µM each time.
For the compound `O=C1c2c(c3n(c(=O)c2O)CCCCC3)C(=O)N1Cc1cccc(Cl)c1F`, the IC50 is 9.2 µM in data set [1] and more than 111 µM in [9].
With `O=C1c2ccc(O)c(O)c2C(=O)N1Cc1ccc(F)c(F)c1`, the IC50 in data set [1] amounted to 0.14 µM.
For `O=C1c2c(c3n(c(=O)c2O)CCCCC3)C(=O)N1Cc1ccc(F)c(Cl)c1`, the figures for the concentration for half-maximal inhibition (IC50) in data set [1] and in [9] were 6 µM and more than 111 µM, respectively.
In the case of `O=C1c2ccc(O)c(O)c2C(=O)N1Cc1cccc(Cl)c1F`, the IC50 in data set [1] is 1.7 µM.
With `O=C1c2c(c3n(c(=O)c2O)CCCCCC3)C(=O)N1Cc1ccc(F)c(Cl)c1`, the results for the IC50 in [1] and in data set [9] were 5.4 µM and more than 111 µM, respectively.
For `O=C1c2c(c3n(c(=O)c2O)CCCCC3)C(=O)N1Cc1ccc(F)c(F)c1`, in that order: 6.01 µM and more than 111 µM.
On the same counts, the results for `O=C1c2c(c3n(c(=O)c2O)CCCCC3)C(=O)N1Cc1ccc(F)cc1` are 10.4 µM and more than 111 µM.
For `O=C1c2c(c3n(c(=O)c2O)CCC3)C(=O)N1Cc1ccc(F)c(Cl)c1`, in that order: 10.9 µM and more than 111 µM.
Turning to `Cc1nnc(C(=O)NC(C)(C)c2nc(C(=O)NCc3ccc(F)cc3)c(O)c(=O)n2C)o1`, it took 0.004 µM to reach a half-maximal effect in data set [8] (EC50).
For `O=C1c2c(c3n(c(=O)c2O)CCCCC3)C(=O)N1Cc1cccc2ccccc12`, the 50% inhibitory concentration (IC50) in data set [1] is 90.5 µM; in data set [9] it was more than 111 µM.
